How the values were obtained:
[1] = molecular target: Aurora B (Homo sapiens, UniProt Q96GD4); test: Aurora B in vitro kinase assay (histone H3 Ser10 phosphorylation, Western blot); type: biochemical
Experimental: (§1) Proteins are resolved by SDS-PAGE and transferred onto polyvinylidene difluoride membranes (Millipore, Mass.), which are blocked with nonfat milk and hybridized with specific primary antibodies. The protein bands are visualized using an enhanced chemiluminescence reagent (GE Healthcare, Pittsburgh, Pa.) after hybridization with a horseradish peroxidase-conjugated secondary antibody.
Reactions are carried out in 1× kinase buffer (25 mM Tris-HCl pH 7.5, 5 mM beta-glycerophosphate, 2 mM dithiothreitol (DTT), 0.1 mM Na3VO4, 10 mM MgCl2 and 5 mM MnCl2) containing 100 μM ATP at 30° C. for 30 minutes. Reactions are stopped and proteins detected by Western blotting.
An in vitro kinase assay was used to determine whether Compound 1 could inhibit Aurora B kinase activity using recombinant Aurora B protein and various concentrations of Compound 1. […] The effect of Compound 1 on Aurora A kinase activity using an in vitro kinase assay was also examined.

[2] = system: A549 cells; test: Anchorage-independent growth of human lung cancer cells; type: cell-based
Experimental: (§2) Tumor cells are suspended in basal medium Eagle (BME) medium and added to 0.6% agar, with different concentrations of Compound 1 in a base layer and a top layer of 0.3% agar. The cultures are maintained at 37° C. in a 5% CO2 incubator for 1 to 2 weeks and then colonies are counted under a microscope using the Image-Pro Plus software (v.4) program (Media Cybernetics, Silver Spring, Md.).
(§3) The effect of Compound 1 treatment on anchorage-independent growth of human lung cancer cells, including A549, H1650, and H520 cells was then examined. […] Compound 1 at 0.5 or 1 μM caused a decrease of more than 80% or 90% compared to control in all cell lines detected.

[3] = system: H1650 cells; test: as above; type: cell-based
Experimental: as §2, §3

[4] = system: H520 cells; test: as above; type: cell-based
Experimental: as §2, §3

[5] = system: HCT116 p53+/+ cells; test: Soft agar assay, p53 wildtype colon cancer cells; type: cell-based
Experimental: as §2
The effect of compound 1 in a pair of colon cancer cell lines, p53 wildtype (HCT116 p53^+/+) and p53-deficient (HCT116 p53^−/−) cells was also examined to determine whether the sensitivity of cells to compound 1 directly correlates with the status of p53 in cells.

[6] = system: histone H3 phosphorylation on Ser10; test: Histone H3 (Ser10) phosphorylation in lung cancer cells (Western blot); type: cell-based; conditions: dose- and time-dependent
Description: as §1
Phosphorylation of a highly conserved serine residue (Ser10) in histone H3 is thought to be crucial for entry into mitosis.

[7] = system: A549 cells transfected with Aurora B shRNA; test: Anchorage-independent growth, Aurora B knockdown cells; type: cell-based; conditions: Homo sapiens
Experimental: as §2
The effect of knocking down Aurora B expression in A549 cancer cells on the cell's sensitivity to Compound 1 was evaluated. […] Compound 1 (0.5 μM) inhibited anchorage-independent growth of A549 cells transfected with mock shRNA by about 90%.

[8] = molecular target: T1, AMPK-alpha1 (Homo sapiens, UniProt Q13131); test: Kinase profile assay (Millipore); type: biochemical; conditions: read-out: kinase activity compared with the control
T1 construct: purchased Millipore
Experimental: (§4) A kinase profile assay was performed by Millipore, to examine other potential targets of Compound 1. Only Akt2 activity was suppressed more than 50% after 5 μM compound 1 treatment, compared with the control (Table 2). In addition, the kinase activity of Aurora A was decreased less than 25% at 5 μM Compound 1.

[9] = molecular target: T2, AMPK-alpha2 (Homo sapiens, UniProt P54646); test: Kinase profile assay (Millipore); type: biochemical; conditions: read-out: kinase activity compared with the control
T2 construct: purchased Millipore
Experimental: as §4

[10] = molecular target: T3, CDK2/cyclinA (Homo sapiens, UniProt P24941); test: Kinase profile assay (Millipore); type: biochemical; conditions: 5 μM
T3 construct: purchased Millipore
Experimental: as §4

[11] = molecular target: T4, CDK3/cyclinE (Homo sapiens, UniProt Q00526); test: Kinase profile assay (Millipore); type: biochemical; conditions: 5 μM
T4 construct: purchased Millipore
Experimental: as §4

[12] = molecular target: T5, CSK (Homo sapiens, UniProt P41240); test: Kinase profile assay (Millipore); type: biochemical; conditions: 5 μM
T5 construct: purchased Millipore
Experimental: as §4

[13] = molecular target: T6, EGFR (Homo sapiens, UniProt P00533); test: Kinase profile assay (Millipore); type: biochemical; conditions: 5 μM
T6 construct: purchased Millipore
Experimental: as §4

[14] = molecular target: T7, FGFR1 (Homo sapiens, UniProt P11362); test: Kinase profile assay (Millipore); type: biochemical; conditions: read-out: kinase activity compared with the control
T7 construct: purchased Millipore
Experimental: as §4

[15] = molecular target: T8, Fyn (Homo sapiens, UniProt P06241); test: Kinase profile assay (Millipore); type: biochemical; conditions: read-out: kinase activity compared with the control
T8 construct: purchased Millipore
Experimental: as §4

[16] = molecular target: T9, IGF-1R (Homo sapiens, UniProt P08069); test: Kinase profile assay (Millipore); type: biochemical; conditions: read-out: kinase activity compared with the control
T9 construct: purchased Millipore
Experimental: as §4

[17] = molecular target: T10, IKK alpha (Homo sapiens, UniProt O15111); test: Kinase profile assay (Millipore); type: biochemical; conditions: read-out: kinase activity compared with the control
T10 construct: purchased Millipore
Experimental: as §4

[18] = molecular target: T11, IKK beta (Homo sapiens, UniProt O14920); test: Kinase profile assay (Millipore); type: biochemical; conditions: read-out: kinase activity compared with the control
T11 construct: purchased Millipore
Experimental: as §4

[19] = molecular target: T12, LKB1 (Homo sapiens, UniProt Q15831); test: Kinase profile assay (Millipore); type: biochemical; conditions: read-out: kinase activity compared with the control
T12 construct: purchased Millipore
Experimental: as §4

[20] = molecular target: T13, MKK7 beta (Homo sapiens, UniProt O14733); test: Kinase profile assay (Millipore); type: biochemical; conditions: 5 μM
T13 construct: purchased Millipore
Experimental: as §4

[21] = molecular target: T14, Met (Homo sapiens, UniProt P08581); test: Kinase profile assay (Millipore); type: biochemical; conditions: 5 μM
T14 construct: purchased Millipore
Experimental: as §4

[22] = molecular target: T15, PDK1 (Homo sapiens, UniProt O15530); test: Kinase profile assay (Millipore); type: biochemical; conditions: read-out: kinase activity compared with the control
T15 construct: purchased Millipore
Experimental: as §4

[23] = molecular target: PI3-K alpha (Homo sapiens, UniProt P42336); test: Kinase profile assay (Millipore); type: biochemical; conditions: read-out: kinase activity compared with the control
Experimental: as §4

[24] = molecular target: T16, PKB alpha (Akt1) (Homo sapiens, UniProt P31749); test: Kinase profile assay (Millipore); type: biochemical; conditions: read-out: kinase activity compared with the control
T16 construct: purchased Millipore
Experimental: as §4

[25] = molecular target: T17, c-Kit (Homo sapiens, UniProt P10721); test: Kinase profile assay (Millipore); type: biochemical; conditions: read-out: kinase activity compared with the control
T17 construct: purchased Millipore
Experimental: as §4

[26] = molecular target: T18, c-RAF (Homo sapiens, UniProt P04049); test: Kinase profile assay (Millipore); type: biochemical; conditions: read-out: kinase activity compared with the control
T18 construct: purchased Millipore
Experimental: as §4

[27] = molecular target: T19, p70S6K (Homo sapiens, UniProt P23443); test: Kinase profile assay (Millipore); type: biochemical; conditions: read-out: kinase activity compared with the control
T19 construct: purchased Millipore
Experimental: as §4

Chain of Aurora B (Q96GD4 whole entry): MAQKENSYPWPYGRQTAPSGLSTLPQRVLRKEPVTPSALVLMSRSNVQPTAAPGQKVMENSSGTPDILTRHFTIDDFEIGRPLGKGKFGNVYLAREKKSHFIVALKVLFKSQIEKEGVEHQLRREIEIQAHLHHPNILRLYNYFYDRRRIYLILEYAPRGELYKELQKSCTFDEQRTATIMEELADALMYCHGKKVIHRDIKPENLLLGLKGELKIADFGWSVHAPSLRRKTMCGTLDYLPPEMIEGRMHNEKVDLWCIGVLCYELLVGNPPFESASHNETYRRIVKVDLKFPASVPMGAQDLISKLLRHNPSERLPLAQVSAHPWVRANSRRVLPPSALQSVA
T15 sequence (O15530 whole entry): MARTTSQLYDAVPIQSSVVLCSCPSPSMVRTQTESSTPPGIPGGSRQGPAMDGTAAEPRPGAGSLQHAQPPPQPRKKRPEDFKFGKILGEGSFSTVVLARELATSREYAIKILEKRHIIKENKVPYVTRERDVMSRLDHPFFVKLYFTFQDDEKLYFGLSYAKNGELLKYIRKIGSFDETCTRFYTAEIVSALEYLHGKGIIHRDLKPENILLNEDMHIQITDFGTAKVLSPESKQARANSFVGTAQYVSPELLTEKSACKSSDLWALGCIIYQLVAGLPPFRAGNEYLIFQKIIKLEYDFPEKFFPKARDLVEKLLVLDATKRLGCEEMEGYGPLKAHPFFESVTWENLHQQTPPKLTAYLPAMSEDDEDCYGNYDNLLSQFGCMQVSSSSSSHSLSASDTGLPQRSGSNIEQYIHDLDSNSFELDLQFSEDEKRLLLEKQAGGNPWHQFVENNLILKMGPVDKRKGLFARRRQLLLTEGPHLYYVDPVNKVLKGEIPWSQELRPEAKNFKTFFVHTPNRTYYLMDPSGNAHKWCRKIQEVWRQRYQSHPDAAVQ
T1 sequence (Q13131 whole entry): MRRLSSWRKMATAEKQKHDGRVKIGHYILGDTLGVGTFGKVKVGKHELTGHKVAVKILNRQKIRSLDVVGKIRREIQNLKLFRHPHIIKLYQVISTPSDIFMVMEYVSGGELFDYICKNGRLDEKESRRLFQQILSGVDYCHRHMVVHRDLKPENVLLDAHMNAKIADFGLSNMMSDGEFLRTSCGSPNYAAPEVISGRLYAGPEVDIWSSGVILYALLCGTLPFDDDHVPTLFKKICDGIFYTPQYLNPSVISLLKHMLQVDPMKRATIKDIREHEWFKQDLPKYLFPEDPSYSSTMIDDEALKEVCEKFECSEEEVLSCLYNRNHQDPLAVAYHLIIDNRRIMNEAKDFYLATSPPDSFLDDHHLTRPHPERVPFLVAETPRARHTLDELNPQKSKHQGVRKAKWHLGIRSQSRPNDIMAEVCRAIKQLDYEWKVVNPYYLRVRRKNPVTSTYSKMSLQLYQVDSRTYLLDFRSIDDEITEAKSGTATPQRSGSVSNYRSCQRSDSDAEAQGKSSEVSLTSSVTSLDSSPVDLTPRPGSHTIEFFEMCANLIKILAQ
T1 sequence (Q9Y478 whole entry partner): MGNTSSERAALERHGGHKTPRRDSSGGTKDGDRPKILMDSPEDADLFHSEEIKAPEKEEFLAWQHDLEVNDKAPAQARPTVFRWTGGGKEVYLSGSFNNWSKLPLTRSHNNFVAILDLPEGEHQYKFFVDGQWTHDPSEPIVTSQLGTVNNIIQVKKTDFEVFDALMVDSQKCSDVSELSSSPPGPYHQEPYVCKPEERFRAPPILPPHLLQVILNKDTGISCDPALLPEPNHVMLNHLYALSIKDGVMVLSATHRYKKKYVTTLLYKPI
T1 sequence (P54619 whole entry partner): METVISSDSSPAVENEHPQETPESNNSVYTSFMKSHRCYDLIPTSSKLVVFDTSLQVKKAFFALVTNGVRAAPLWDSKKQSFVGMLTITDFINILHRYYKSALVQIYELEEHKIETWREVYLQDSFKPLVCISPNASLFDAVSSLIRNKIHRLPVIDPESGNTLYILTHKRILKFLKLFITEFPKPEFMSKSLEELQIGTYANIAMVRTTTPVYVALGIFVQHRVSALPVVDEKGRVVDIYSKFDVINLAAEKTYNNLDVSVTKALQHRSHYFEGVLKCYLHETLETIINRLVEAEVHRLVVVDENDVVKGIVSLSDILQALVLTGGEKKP
T11 sequence (O14920 whole entry, species assumed): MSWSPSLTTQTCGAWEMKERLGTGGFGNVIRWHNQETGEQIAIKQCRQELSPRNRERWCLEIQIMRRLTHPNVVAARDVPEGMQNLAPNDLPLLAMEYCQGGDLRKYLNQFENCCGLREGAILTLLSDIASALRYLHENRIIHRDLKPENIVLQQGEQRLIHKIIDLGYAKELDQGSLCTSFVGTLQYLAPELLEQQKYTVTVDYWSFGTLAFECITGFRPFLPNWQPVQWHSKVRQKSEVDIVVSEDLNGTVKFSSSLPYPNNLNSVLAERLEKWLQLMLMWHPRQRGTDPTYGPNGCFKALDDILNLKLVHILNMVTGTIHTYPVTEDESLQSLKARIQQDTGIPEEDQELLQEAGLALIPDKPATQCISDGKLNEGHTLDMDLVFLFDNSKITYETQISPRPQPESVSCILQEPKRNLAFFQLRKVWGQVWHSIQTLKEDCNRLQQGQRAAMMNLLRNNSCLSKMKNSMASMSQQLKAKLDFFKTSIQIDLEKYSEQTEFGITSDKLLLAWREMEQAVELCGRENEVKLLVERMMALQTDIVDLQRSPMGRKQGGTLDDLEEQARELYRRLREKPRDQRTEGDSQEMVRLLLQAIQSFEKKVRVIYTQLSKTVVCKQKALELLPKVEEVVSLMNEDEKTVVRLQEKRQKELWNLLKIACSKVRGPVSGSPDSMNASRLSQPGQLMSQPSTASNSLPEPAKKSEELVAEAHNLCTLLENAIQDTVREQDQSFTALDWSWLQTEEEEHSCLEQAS
T14 sequence (P08581 25-1390): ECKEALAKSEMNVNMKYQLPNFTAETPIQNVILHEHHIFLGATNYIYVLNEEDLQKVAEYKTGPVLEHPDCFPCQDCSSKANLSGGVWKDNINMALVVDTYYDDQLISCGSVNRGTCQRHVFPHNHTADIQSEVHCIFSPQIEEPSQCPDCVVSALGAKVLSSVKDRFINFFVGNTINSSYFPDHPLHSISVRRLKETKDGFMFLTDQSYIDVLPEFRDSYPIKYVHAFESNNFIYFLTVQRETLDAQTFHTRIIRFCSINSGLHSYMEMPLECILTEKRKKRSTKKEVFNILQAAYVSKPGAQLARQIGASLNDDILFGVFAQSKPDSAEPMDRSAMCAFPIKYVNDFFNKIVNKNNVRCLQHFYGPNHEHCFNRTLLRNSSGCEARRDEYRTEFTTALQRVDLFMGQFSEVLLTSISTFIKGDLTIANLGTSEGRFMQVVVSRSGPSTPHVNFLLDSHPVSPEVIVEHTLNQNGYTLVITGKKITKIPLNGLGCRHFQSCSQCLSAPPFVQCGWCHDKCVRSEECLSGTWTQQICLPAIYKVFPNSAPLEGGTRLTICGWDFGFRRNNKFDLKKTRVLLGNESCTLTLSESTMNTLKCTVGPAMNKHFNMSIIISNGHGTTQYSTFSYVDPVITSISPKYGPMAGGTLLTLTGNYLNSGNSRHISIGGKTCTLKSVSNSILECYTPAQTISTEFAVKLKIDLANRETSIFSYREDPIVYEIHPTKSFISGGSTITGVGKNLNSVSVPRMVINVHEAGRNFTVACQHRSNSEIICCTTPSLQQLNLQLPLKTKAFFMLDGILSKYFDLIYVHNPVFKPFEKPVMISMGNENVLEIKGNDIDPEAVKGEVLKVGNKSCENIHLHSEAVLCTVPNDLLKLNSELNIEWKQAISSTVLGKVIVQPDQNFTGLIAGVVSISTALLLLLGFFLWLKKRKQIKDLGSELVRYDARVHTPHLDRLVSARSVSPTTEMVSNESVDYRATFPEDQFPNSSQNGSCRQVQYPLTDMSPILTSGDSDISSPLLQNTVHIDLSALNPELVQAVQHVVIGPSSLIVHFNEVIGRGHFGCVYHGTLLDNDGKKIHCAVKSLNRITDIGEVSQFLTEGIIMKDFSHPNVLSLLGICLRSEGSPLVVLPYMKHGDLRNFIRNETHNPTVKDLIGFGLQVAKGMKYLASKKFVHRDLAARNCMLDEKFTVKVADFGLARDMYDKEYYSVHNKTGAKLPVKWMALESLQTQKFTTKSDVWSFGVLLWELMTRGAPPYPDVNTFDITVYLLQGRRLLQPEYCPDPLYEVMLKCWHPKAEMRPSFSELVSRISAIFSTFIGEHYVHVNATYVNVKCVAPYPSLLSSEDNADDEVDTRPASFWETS
T10 sequence (O15111 whole entry, species assumed): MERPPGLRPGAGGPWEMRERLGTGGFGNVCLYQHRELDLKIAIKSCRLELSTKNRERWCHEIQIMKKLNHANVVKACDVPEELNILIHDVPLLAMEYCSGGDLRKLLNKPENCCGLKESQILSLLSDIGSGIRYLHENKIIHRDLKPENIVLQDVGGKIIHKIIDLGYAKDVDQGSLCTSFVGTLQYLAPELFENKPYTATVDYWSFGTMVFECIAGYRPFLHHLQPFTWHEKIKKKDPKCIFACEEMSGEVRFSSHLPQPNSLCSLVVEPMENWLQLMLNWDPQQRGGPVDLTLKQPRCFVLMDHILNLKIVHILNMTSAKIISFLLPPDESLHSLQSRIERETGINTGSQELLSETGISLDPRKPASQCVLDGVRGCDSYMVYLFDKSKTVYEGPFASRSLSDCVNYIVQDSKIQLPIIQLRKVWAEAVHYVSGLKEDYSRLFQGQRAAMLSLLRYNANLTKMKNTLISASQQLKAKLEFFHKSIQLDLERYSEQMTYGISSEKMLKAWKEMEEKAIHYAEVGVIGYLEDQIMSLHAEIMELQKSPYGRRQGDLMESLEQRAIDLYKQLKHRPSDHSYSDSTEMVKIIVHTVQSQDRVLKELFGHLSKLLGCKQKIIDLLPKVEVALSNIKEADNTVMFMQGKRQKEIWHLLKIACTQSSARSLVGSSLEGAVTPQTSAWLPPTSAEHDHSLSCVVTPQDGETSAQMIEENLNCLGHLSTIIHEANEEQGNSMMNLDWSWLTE

SMILES: O=C(/C=C/c1ccc2c(c1)OCO2)/C=C1/C(=O)Nc2ccccc21 [Compound 1]
- inhibition at 0.05 µM ([1]; 0.05 μM): 22%
- inhibition at 0.1 µM ([1]; 0.1 μM): 50%
- histone H3 (Ser10) phosphorylation band by Aurora B ([1]; 1 μM): only a weak histone H (Ser10) band
- concentration required for Aurora B inhibition ([1]; discussion statement): ≤ 1 µM
- decrease of anchorage-independent growth compared to control ([2]; A549, 0.5 μM): more than 80%
- decrease of anchorage-independent growth compared to control ([2]; A549, 1 μM): > 90%
- decrease of anchorage-independent growth compared to control ([3]; H1650, 0.5 μM): more than 80%
- decrease of anchorage-independent growth compared to control ([3]; H1650, 1 μM): > 90%
- decrease of anchorage-independent growth compared to control ([4]; H520, 0.5 μM): more than 80%
- decrease of anchorage-independent growth compared to control ([4]; H520, 1 μM): > 90%
- inhibition of growth in soft agar ([5]; 0.05 μM): no inhibition
- inhibition at 0.1 µM ([5]; Homo sapiens, HCT-116, 0.1 μM, read-out: inhibition of growth in soft agar): 55%
- histone H3 phosphorylation on Ser10 in cancer cells [6]: suppressed
- inhibition at 0.5 µM [7]: < 40%
- remaining activity at 5 µM [8]: 96%
- remaining activity at 5 µM [9]: 90%
- kinase activity compared with the control [10]: 98
- kinase activity compared with the control [11]: 99
- kinase activity compared with the control [12]: 110
- kinase activity compared with the control [13]: 106
- remaining activity at 5 µM [14]: 86%
- remaining activity at 5 µM [15]: 99%
- remaining activity at 5 µM [16]: 105%
- remaining activity at 5 µM [17]: 83%
- remaining activity at 5 µM [18]: 68%
- remaining activity at 5 µM [19]: 87%
- kinase activity compared with the control [20]: 94
- kinase activity compared with the control [21]: 89
- remaining activity at 5 µM [22]: 96%
- remaining activity at 5 µM [23]: 102%
- remaining activity at 5 µM [24]: 68%
- remaining activity at 5 µM [25]: 123%
- remaining activity at 5 µM [26]: 87%
- remaining activity at 5 µM [27]: 72%

Reference: patent US9796671B2, “Aurora kinase inhibitors” (REGENTS OF THE UNIVERSITY OF MINNESOTA, priority 2012, dated 2017)
